# Reference: article PMC10574094, “Discovery of a SHP2 Degrader with In Vivo Anti-Tumor Activity” (Molecules, 2023)
# Tests used:
# [1] = target: T1, full-length SHP2 (1-528) (Homo sapiens, UniProt Q06124); experiment: SHP2 allosteric inhibition assay (DiFMUP substrate); format: biochemical
# T1 construct: The SHP2 protein (Aa 1–528) was cloned into a pET-21a(+) vector; His; made in house; host or cells: E. coli BL21(DE3)
# T1 sequence (Q06124 1-528): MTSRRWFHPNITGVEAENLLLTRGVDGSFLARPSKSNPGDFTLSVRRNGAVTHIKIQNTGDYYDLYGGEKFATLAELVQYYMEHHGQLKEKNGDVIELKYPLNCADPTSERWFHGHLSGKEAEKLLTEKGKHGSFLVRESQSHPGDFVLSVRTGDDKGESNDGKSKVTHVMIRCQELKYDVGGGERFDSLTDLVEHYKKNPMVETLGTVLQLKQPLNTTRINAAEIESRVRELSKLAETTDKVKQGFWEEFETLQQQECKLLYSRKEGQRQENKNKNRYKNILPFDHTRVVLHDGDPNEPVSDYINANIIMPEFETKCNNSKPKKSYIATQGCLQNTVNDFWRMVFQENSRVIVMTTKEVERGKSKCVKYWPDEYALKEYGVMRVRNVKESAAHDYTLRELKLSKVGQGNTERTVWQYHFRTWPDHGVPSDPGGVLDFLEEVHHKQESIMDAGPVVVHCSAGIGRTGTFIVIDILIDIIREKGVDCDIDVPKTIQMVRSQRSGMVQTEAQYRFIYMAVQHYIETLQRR
# Procedure: The SHP2 protein (Aa 1–528) was cloned into a pET-21a(+) vector. Bacterial BL21(DE3) (Novagen) was used as an expression host, and the induction of protein expression was carried out in LB media with 1 mM IPTG at 18 °C overnight. Cell pellets were stored at −80 °C for subsequent protein purification. Protein purification was conducted at 4 °C. Frozen cell pellets were lysed by sonication in 40 mL cold lysis buffer (50 mM Tris-HCl, pH 8.0, 150 mM NaCl, 5 mM imidazole, and 1 mM PMSF) per liter cell pellet. Cell lysates were clarified by centrifuging for 15 min at 6000 rpm. The supernatant was incubated with HisPur Ni-NTA resin (Thermo Scientific, Waltham, MA, USA) for 2 h, and then packed onto a column and washed with 50 resin volume of buffer A (50 mM Tris-HCl, pH 8.0, 500 mM NaCl, 5 mM imidazole). The HIS-tagged proteins were eluted with Buffer B (50 mM Tris-HCl, pH = 8.0, 500 mM NaCl, 300 mM imidazole,). Pooled HIS-protein-containing fractions were concentrated, loaded onto a HiLoad 26/600 Superdex 75 column (GE Healthcare Biosciences, Piscataway, NJ, USA), and eluted with storage buffer (50 mM Tris-HCl, pH 8.0, 150 mM NaCl, 1 mM DTT, 10% glycerol). Proteins used for inhibition assays were purified using Ni-NTA resin (Qiagen, Hilden, Germany) followed by size exclusion column chromatography (ÄKTA pure, Cytiva, Marlborough, MA, USA) and the purity was determined to be >95% by SDS-PAGE and Coomassie staining. The protein was aliquoted and stored at −80 °C.
# The catalytic activity of SHP2 (1-528) was assayed with 6,8-Difluoro-4-Methylumbelliferyl Phosphate (DiFMUP, Invitrogen, cat# D6567) as a substrate in 3,3-Dimethylglutaric acid (DMG) buffer (50 mM DMG, pH 7.0, 1 mM EDTA, 18 mM NaCl, 0.01% Triton X-100) at 25 °C. To determine the IC50 values, the assays were performed in 96-well plates (Corning Costar 3915). Series diluted compounds were incubated with 0.5 nM of SHP2 and 0.5 μM of peptide IRS1_pY1172(dPEG8)pY1222 (sequence H2N-LN(pY)IDLDLV(dPEG8)LST(pY)ASINFQK-amide). After 30 min incubation at room temperature, the substrate DiFMUP was added to the reaction (200 μM final concentration, total reaction volume is […]) and incubated at 25 °C for 10 min. The reaction was then quenched by adding 40 μL of 160 μM bpV(Phen) (Sigma–Aldrich, cat# SML0889) solution. The fluorescence signal was monitored with a CLARIOstar Plus Microplate Spectrophotometer (BMG Labtech) using excitation and emission wavelengths of 340 and 450 nm, respectively. The inhibitordose-response curves were analyzed using normalized IC50 regression curve fitting with control-based normalization. Data were fitted using Prism GraphPad 9.2.0.
# [2] = test system: KYSE-520 xenograft; experiment: KYSE-520 xenograft tumor growth; format: in vivo, mice; conditions: 18 days
# Procedure: Experiments on mice were carried out in accordance with the regulations of the Institutional Animal Care and Use Committees at Purdue University. All mice were housed under pathogen-free conditions in the animal facility and received autoclaved water and food. Eight to ten weeks-old Nude mice were used in the study.
# For the xenograft tumor study, KYSE-520 cells were suspended in PBS and a total of 3 × 10^6 cells (100 μL) were subcutaneously implanted into both the left and right flank using a 27-gauge needle. Tumor volume was calculated using the formula V = (W^2 × L)/2 for caliper measurements. Once the tumor volume reaches 200 mm^3, daily intraperitoneal injection of either control, 25 mg/kg or 50 mg/kg of compound P9 was performed. Mice were sacrificed after injection for 18 days, and tumors were collected for biochemical analysis.
structure (smiles),measurement,setting,value
"Cc1ncsc1-c1ccc([C@H](C)NC(=O)[C@@H]2C[C@@H](O)CN2C(=O)[C@@H](NC(=O)CCCCCCCCCN2CCN(C(=O)CCCCCC3(CN)CCN(c4cnc(Sc5cccc(Cl)c5Cl)c(N)n4)CC3)CC2)C(C)(C)C)cc1 [P9, (2S,4R)-1-((S)-2-(10-(4-(6-(1-(6-amino-5-((2,3-dichlorophenyl)thio)pyrazin-2-yl)-4-(aminomethyl)piperidin-4-yl)hexanoyl)piperazin-1-yl)decanamido)-3,3-dimethylbutanoyl)-4-hydroxy-N-((S)-1-(4-(4-methylthiazol-5-yl)phenyl)ethyl)pyrrolidine-2-carboxamide]",Fold selectivity (SHP2),"[1]; Table S3, relative to SHP2",1
same,IC50,"[1]; full length SHP2, enzymatic assay",95 ± 3.4 nM
same,effect on tumor burden,[2]; 25 mg/kg daily IP,decrease in tumor burden
same,effect on tumor burden,[2]; 50 mg/kg daily IP,nearly complete tumor regression
